Measurements reported in ChEMBL document CHEMBL1949499, “Nicotinic acids: liver-targeted SCD inhibitors with preclinical anti-diabetic efficacy” (Bioorg Med Chem Lett, 2011).

Columns and labels:
[1] = Plasma clearance in Sprague-Dawley rat at 10 mg/kg, po and 2 mg/kg, iv; assay type: ADME, organism-based
Mus musculus [2] = test: Inhibition of SCD activity in high sucrose/fat free diet fed C57/BL6 mouse liver assessed as reduction in conversion of [14C]stearic acid to [14C]oleic acid at 10 mg/kg, po; assay type: functional
[3] = Drug uptake in C57/BL6 mouse left median liver lobe at 30 mg/kg, po after 24 hrs; assay type: ADME, organism-based; set-up: dose 30 mg/kg, route oral; conditions: read-out: Drug uptake
Stearoyl-CoA desaturase [4] = molecular target: T1, Stearoyl-CoA desaturase (Homo sapiens, UniProt O00767); test: Inhibition of human SCD1 expressed in human HepG2 cells assessed as conversion of [14C]stearic acid to [14C]oleic acid; assay type: cell-based
T1 sequence (O00767 whole entry): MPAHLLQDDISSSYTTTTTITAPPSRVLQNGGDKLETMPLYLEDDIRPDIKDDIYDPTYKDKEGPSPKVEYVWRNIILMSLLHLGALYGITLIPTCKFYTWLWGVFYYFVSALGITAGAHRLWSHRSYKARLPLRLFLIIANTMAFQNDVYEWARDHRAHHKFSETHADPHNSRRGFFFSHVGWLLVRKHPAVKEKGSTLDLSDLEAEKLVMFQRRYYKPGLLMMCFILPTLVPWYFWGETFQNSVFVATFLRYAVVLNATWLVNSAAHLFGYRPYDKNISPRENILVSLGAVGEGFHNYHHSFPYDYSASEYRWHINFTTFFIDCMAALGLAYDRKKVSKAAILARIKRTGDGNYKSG

[5] = Oral bioavailability in C57/BL6 mouse plasma at 10 mg/kg; assay type: ADME, organism-based
Nucleic Acid = test: Ratio of drug uptake in high fat diet fed C57/BL6 mouse eDIO model whole blood to high sucrose/fat free diet fed C57/BL6 mouse plasma; assay type: ADME; conditions: in vivo
[6] = Drug uptake in C57/BL6 mouse kidney at 30 mg/kg, po after 24 hrs; assay type: ADME, organism-based; set-up: dose 30 mg/kg, route oral; conditions: read-out: Drug uptake
HepG2 = test: Selectivity ratio of IC50 for human SCD1 expressed in human HepG2 cells to IC50 for rat SCD1 in Sprague-Dawley rat hepatocytes; assay type: cell-based
[7] = Drug uptake in C57/BL6 mouse skin at 30 mg/kg, po after 2 hrs; assay type: ADME, organism-based, Zone of skin; set-up: dose 30 mg/kg, route oral; conditions: read-out: Drug uptake
[8] = Drug uptake in high fat diet fed C57/BL6 mouse eDIO model whole blood at 30 mg/kg, po after 3 hrs; assay type: ADME, organism-based; set-up: dose 30 mg/kg, route oral; conditions: read-out: Drug uptake
Mus musculus [9] = test: Inhibition of SCD activity in high sucrose/fat free diet fed C57/BL6 mouse liver assessed as reduction in conversion of [14C]stearic acid to [14C]oleic acid at 30 mg/kg, po; assay type: functional
Mus musculus [10] = test: Inhibition of SCD activity in high sucrose/fat free diet fed C57/BL6 mouse liver assessed as reduction in conversion of [14C]stearic acid to [14C]oleic acid at 100 mg/kg, po; assay type: functional
[11] = Volume of distribution at steady state in C57/BL6 mouse at 10 mg/kg, po and 2 mg/kg, iv; assay type: ADME, organism-based; conditions: in vivo, read-out: Vdss
[12] = Volume of distribution at steady state in Sprague-Dawley rat at 10 mg/kg, po and 2 mg/kg, iv; assay type: ADME, organism-based; conditions: in vivo, read-out: Vdss
[13] = Plasma clearance in C57/BL6 mouse at 10 mg/kg, po and 2 mg/kg, iv; assay type: ADME, organism-based
[14] = Drug uptake in high fat diet fed C57/BL6 mouse eDIO model whole blood at 100 mg/kg, po after 3 hrs; assay type: ADME, organism-based; set-up: dose 100 mg/kg, route oral; conditions: read-out: Drug uptake
Stearoyl-CoA desaturase [15] = molecular target: T1, Stearoyl-CoA desaturase; test: Inhibition of human SCD1
[16] = molecular target: ATP-binding cassette sub-family C member 2 (Homo sapiens, UniProt Q92887); test: Binding affinity to MRP2 expressed in MDCK2 cells coexpressing OATP1B1; assay type: cell-based; conditions: dog, mdck-ii
ATP-binding cassette sub-family C member 2, sequence (Q92887 whole entry): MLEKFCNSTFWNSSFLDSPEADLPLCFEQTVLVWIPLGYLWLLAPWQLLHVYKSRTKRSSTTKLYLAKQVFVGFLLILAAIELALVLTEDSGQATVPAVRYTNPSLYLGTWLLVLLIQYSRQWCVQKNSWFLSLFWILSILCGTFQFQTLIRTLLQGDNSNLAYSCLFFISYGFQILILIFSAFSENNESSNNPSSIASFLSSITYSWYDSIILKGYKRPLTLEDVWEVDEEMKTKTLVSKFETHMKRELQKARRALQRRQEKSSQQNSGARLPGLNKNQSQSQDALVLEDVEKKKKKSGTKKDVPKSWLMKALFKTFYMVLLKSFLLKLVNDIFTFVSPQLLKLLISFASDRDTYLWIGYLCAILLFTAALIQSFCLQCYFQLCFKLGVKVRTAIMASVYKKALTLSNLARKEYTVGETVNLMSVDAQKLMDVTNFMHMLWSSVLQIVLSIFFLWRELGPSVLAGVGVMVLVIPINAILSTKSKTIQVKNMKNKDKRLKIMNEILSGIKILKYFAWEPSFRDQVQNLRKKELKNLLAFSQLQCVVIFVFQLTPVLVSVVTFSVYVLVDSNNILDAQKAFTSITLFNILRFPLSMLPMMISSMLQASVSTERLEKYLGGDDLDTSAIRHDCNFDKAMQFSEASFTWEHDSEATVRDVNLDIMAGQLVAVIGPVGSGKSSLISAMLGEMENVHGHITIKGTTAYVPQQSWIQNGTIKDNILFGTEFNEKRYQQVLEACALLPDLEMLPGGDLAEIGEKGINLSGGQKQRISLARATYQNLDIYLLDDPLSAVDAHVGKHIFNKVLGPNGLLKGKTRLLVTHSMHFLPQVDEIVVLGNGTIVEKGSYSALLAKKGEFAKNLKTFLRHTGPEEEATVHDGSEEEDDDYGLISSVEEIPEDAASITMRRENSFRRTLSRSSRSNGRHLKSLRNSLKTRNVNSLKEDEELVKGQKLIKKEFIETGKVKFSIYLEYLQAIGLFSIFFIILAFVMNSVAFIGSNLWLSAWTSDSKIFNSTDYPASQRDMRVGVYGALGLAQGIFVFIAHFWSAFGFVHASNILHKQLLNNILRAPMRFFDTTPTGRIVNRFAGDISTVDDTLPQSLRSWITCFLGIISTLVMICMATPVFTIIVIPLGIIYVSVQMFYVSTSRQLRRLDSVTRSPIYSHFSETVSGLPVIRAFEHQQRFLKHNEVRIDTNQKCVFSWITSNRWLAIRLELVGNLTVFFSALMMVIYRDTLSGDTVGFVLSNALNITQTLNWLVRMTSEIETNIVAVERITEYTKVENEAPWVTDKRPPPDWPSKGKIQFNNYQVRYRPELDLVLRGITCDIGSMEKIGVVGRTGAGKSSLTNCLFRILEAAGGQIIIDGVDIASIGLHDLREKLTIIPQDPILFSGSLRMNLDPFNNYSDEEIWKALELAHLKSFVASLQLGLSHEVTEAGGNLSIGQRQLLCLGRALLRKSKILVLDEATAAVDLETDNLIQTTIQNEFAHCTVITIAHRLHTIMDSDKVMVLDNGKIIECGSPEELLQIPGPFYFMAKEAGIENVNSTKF

[17] = Drug uptake in C57/BL6 mouse harderian glands at 30 mg/kg, po after 2 hrs; assay type: ADME, organism-based, Harderian gland; set-up: dose 30 mg/kg, route oral; conditions: read-out: Drug uptake
[18] = Plasma concentration in C57/BL6 mouse at 30 mg/kg, po after 24 hrs; assay type: ADME, organism-based; set-up: dose 30 mg/kg, route oral
[19] = Drug uptake in C57/BL6 mouse left epididymal fat at 30 mg/kg, po after 6 hrs; assay type: ADME, organism-based, Epididymal fat pad; set-up: dose 30 mg/kg, route oral; conditions: male, read-out: Drug uptake
Mus musculus [20] = test: Acute antidiabetic activity in high fat diet fed C57/BL6 mouse eDIO model assessed as increase in glucose clearance at 100 mg/kg, po administered 1 hr prior to glucose challenge by oGTT assay; assay type: functional
[21] = Drug uptake in C57/BL6 mouse skin at 30 mg/kg, po after 24 hrs; assay type: ADME, organism-based, Zone of skin; set-up: dose 30 mg/kg, route oral; conditions: read-out: Drug uptake
[22] = Drug uptake in C57/BL6 mouse cerebellum at 30 mg/kg, po after 24 hrs; assay type: ADME, organism-based; set-up: dose 30 mg/kg, route oral; conditions: read-out: Drug uptake
[23] = Drug uptake in C57/BL6 mouse skin at 30 mg/kg, po after 6 hrs; assay type: ADME, organism-based, Zone of skin; set-up: dose 30 mg/kg, route oral; conditions: read-out: Drug uptake
[24] = Plasma concentration in high sucrose/fat free diet fed C57/BL6 mouse at 10 mg/kg, po after 3 hrs; assay type: ADME, organism-based; set-up: dose 10 mg/kg, route oral
[25] = Drug uptake in C57/BL6 mouse left epididymal fat at 30 mg/kg, po after 2 hrs; assay type: ADME, organism-based, Epididymal fat pad; set-up: dose 30 mg/kg, route oral; conditions: male, read-out: Drug uptake

In the case of O=C(O)c1cncc(-c2ccc(N3CCC(Oc4cc(F)ccc4Br)CC3)nn2)c1, the clearance [1] is reported as 8.6 mL/min/kg, the inhibition in vivo at 10 mg/kg (Mus musculus [2]) is reported as 25% and the concentration at 24 h [3] is reported as 32 nM. For the same molecule, the IC50 (Stearoyl-CoA desaturase [4]) was 6.03 µM, the bioavailability [5] was 8% and the Ratio (Nucleic Acid) was < 2. For the same molecule, the concentration at 24 h [6] was 29 nM, the Ratio IC50 (HepG2) was 34 and the concentration at 2 h [7] was 170 nM. It also gave a concentration at 3 h [8] of 320 nM, an inhibition in vivo at 30 mg/kg (Mus musculus [9]) of 74% and an inhibition in vivo at 100 mg/kg (Mus musculus [10]) of 86%. The Vd [11] was 1.12 L/kg, the Vd [12] was 0.41 L/kg and the clearance [13] was 81 mL/min/kg. For the same molecule, the concentration at 3 h [14] was 2240 nM, the IC50 (Stearoyl-CoA desaturase [15]) was 0.007 µM and the Activity [16] was “Active”. The concentration at 2 h [17] was 389 nM, the concentration at 24 h [18] was 5 nM and the concentration at 6 h [19] was 111 nM. It also gave an Activity (Mus musculus [20]) of 90%, a concentration at 24 h [21] of 12 nM and a concentration at 24 h [22] of 5 nM. The concentration at 6 h [23] was 55 nM, the concentration at 3 h [24] was 120 nM and the concentration at 2 h [25] was 106 nM.
